According to patent US20230150944A1, “PESTICIDALLY ACTIVE HETEROCYCLIC DERIVATIVES WITH SULFOXIMINE CONTAINING SUBSTITUENTS” (SYNGENTA CROP PROTECTION AG, priority 2018, published 2023):

Tests used:
Assay type in all cases: in vivo
[1] = system: Myzus persicae (Green Peach Aphid); test: Example B5: Activity on Myzus persicae, pea seedling roots in test solution; details: 144 h, test rate of 24 ppm, roots of infested pea seedlings placed into test solution, 6 days
Method: Example B5: Activity on Myzus persicae (Green Peach Aphid)
Roots of pea seedlings infested with an aphid population of mixed ages were placed directly into aqueous test solutions prepared from 10′000 DMSO stock solutions. The samples were assessed for mortality 6 days after placing seedlings into test solutions.

[2] = system: Spodoptera littoralis (Egyptian Cotton Leaf Worm); test: Example B7: Activity on Spodoptera littoralis, cotton leaf disc spray; details: foliar, 72 h, application rate of 200 ppm, L1 larvae on cotton leaf discs, 3 days after infestation, read-out: control (mortality, anti-feeding effect or growth inhibition)
Method: Example B7: Activity on Spodoptera littoralis (Egyptian Cotton Leaf Worm)
Cotton leaf discs were placed onto agar in 24-well microtiter plates and sprayed with aqueous test solutions prepared from 10′000 ppm DMSO stock solutions. After drying the leaf discs were infested with five L1 larvae. The samples were assessed for mortality, anti-feeding effect, and growth inhibition in comparison to untreated samples 3 days after infestation. Control of Spodoptera littoralis by a test sample is given when at least one of the categories mortality, anti-feedant effect, and growth inhibition is higher than the untreated sample.

[3] = system: Myzus persicae (Green Peach Aphid); test: Example B4: Activity on Myzus persicae, sunflower leaf disc spray; details: foliar, 144 h, application rate of 200 ppm, mixed-age aphids on sprayed sunflower leaf discs, 6 days after infestation
Method: Example B4: Activity on Myzus persicae (Green Peach Aphid)
Sunflower leaf discs were placed onto agar in a 24-well microtiter plate and sprayed with aqueous test solutions prepared from 10′000 ppm DMSO stock solutions. After drying, the leaf discs were infested with an aphid population of mixed ages. The samples were assessed for mortality 6 days after infestation.

[4] = system: Bemisia tabaci (Cotton White Fly); test: Example B1: Activity on Bemisia tabaci, cotton leaf disc spray; details: foliar, 144 h, application rate of 200 ppm, adult white flies on cotton leaf discs, 6 days after incubation
Method: Example B1: Activity on Bemisia tabaci (Cotton White Fly)
Cotton leaf discs were placed on agar in 24-well microtiter plates and sprayed with aqueous test solutions prepared from 10′000 ppm DMSO stock solutions. After drying the leaf discs were infested with adult white flies. The samples were checked for mortality 6 days after incubation.

[5] = system: Plutella xylostella (Diamond Back Moth); test: Example B6: Activity on Plutella xylostella, artificial diet, L2 larvae; details: 120 h, application rate of 200 ppm, 5 days after infestation, read-out: effect in at least one of the two categories (mortality or growth inhibition)
Method: Example B6: Activity on Plutella xylostella (Diamond Back Moth)
(§1) 24-well microtiter plates with artificial diet were treated with aqueous test solutions prepared from 10′000 ppm DMSO stock solutions by pipetting. After drying, the plates were infested with L2 larvae (10 to 15 per well). The samples were assessed for mortality and growth inhibition in comparison to untreated samples 5 days after infestation.

[6] = system: Euschistus heros (Neotropical Brown Stink Bug); test: Example B3: Activity on Euschistus heros, soybean leaf spray; details: 120 h, application rate of 200 ppm, N2 nymphs on soybean leaves, 5 days after infestation, read-out: effect in at least one of the two categories (mortality or growth inhibition)
Method: Example B3: Activity on Euschistus heros (Neotropical Brown Stink Bug)
Soybean leaves on agar in 24-well microtiter plates were sprayed with aqueous test solutions prepared from 10′000 ppm DMSO stock solutions. After drying the leaves were infested with N2 nymphs. The samples were assessed for mortality and growth inhibition in comparison to untreated samples 5 days after infestation.

[7] = system: Diabrotica balteata (Corn Root Worm); test: Example B2: Activity on Diabrotica balteata, maize sprout spray; details: 96 h, application rate of 200 ppm, L2 larvae on maize sprouts, 4 days after infestation, read-out: effect in at least one of the two categories (mortality or growth inhibition)
Method: Example B2: Activity on Diabrotica balteata (Corn Root Worm)
as §1, with “Maize sprouts placed onto an agar layer in 24-well” for “24-well”, “plates” for “plates with artificial diet”, “spraying.” for “pipetting.”, “(6” for “(10”, “10” for “15”, “4” for “5”

[8] = system: Plutella xylostella (Diamond Back Moth); test: Example B11: Activity on Plutella xylostella, artificial diet, eggs; details: 192 h, application rate of 200 ppm, 8 days after infestation, read-out: effect in at least one of the two categories (mortality or growth inhibition)
Method: Example B11: Activity on Plutella xylostella (Diamond Back Moth)
as §1, with “drying, Plutella eggs were pipetted through a plastic stencil onto a gel blotting paper and” for “drying,”, “plate was closed” for “plates were infested”, “it.” for “L2 larvae (10 to 15 per well).”, “8” for “5”

[9] = system: Tetranychus urticae (Two-Spotted Spider Mite); test: Example B10: Activity on Tetranychus urticae, bean leaf disc spray; details: foliar, 192 h
Method: Example B10: Activity on Tetranychus urticae (Two-Spotted Spider Mite)
Bean leaf discs on agar in 24-well microtiter plates were sprayed with aqueous test solutions prepared from 10′000 ppm DMSO stock solutions. After drying the leaf discs were infested with a mite population of mixed ages. The samples were assessed for mortality on mixed population (mobile stages) 8 days after infestation.

CCn1c(C(F)(F)F)cc2nc(-c3ncc(C4(C#N)CC4)cc3S(=N)(=O)CC)n(C)c2c1=O (stereo not drawn) [Example P14, 1-[6-[5-ethyl-3-methyl-4-oxo-6-(trifluoromethyl)imidazo[4,5-c]pyridin-2-yl]-5-(ethylsulfonimidoyl)-3-pyridyl] cyclopropanecarbonitrile]
≥ 80%: mortality at 24 ppm [1] | percent control (mortality, anti-feedant effect or growth inhibition) at 200 ppm [2] | mortality at 200 ppm [3] | mortality at 200 ppm [4] | percent effect (mortality or growth inhibition) at 200 ppm [5] | percent effect (mortality or growth inhibition) at 200 ppm [6] | percent effect (mortality or growth inhibition) at 200 ppm [7]

CCS(=N)(=O)c1cc(C2CC2)cnc1-c1cn2ncc(C(F)(F)F)cc2n1 (stereo not drawn) [Example P16, [5-cyclopropyl-2-[7-(trifluoromethyl)imidazo[1,2-b]pyridazin-2-yl]-3-pyridyl]-ethyl-imino-oxo-λ^6-sulfane]
≥ 80%: mortality at 24 ppm [1] | percent control (mortality, anti-feedant effect or growth inhibition) at 200 ppm [2] | mortality at 200 ppm [3] | percent effect (mortality or growth inhibition) at 200 ppm [8] | percent effect (mortality or growth inhibition) at 200 ppm [7]

CCS(=N)(=O)c1cc(C2CC2)cnc1-c1nc2cc(SC(F)(F)F)ccc2o1 (stereo not drawn) [Example P18, [5-cyclopropyl-2-[5-(trifluoromethylsulfanyl)-1,3-benzoxazol-2-yl]-3-pyridyl]-ethyl-imino-oxo-λ^6-sulfane]
≥ 80%: percent effect (mortality or growth inhibition) at 200 ppm [8]

CCS(=N)(=O)c1cc(C2CC2)cnc1-c1nc2cc(S(=O)(=O)C(F)(F)F)ncc2n1C (stereo not drawn) [Example P3, [5-cyclopropyl-2-[3-methyl-6-(trifluoromethylsulfonyl)imidazo[4,5-c]pyridin-2-yl]-3-pyridyl]-ethyl-imino-oxo-λ^6-sulfane]
≥ 80%: mortality at 24 ppm [1] | percent control (mortality, anti-feedant effect or growth inhibition) at 200 ppm [2] | mortality at 200 ppm [3] | mortality at 200 ppm [4] | percent effect (mortality or growth inhibition) at 200 ppm [5] | percent effect (mortality or growth inhibition) at 200 ppm [6] | mortality at 200 ppm [9] | percent effect (mortality or growth inhibition) at 200 ppm [7]

CCS(=N)(=O)c1cc(C2(C#N)CC2)cnc1-c1nc2cc(C(F)(F)F)n(OC)c(=O)c2n1C (stereo not drawn) [Example P8, 1-[5-(ethylsulfonimidoyl)-6-[5-methoxy-3-methyl-4-oxo-6-(trifluoromethyl)imidazo[4,5-c]pyridin-2-yl]-3-pyridyl]cyclopropanecarbonitrile]
≥ 80%: mortality at 24 ppm [1] | percent control (mortality, anti-feedant effect or growth inhibition) at 200 ppm [2] | mortality at 200 ppm [3] | mortality at 200 ppm [4] | percent effect (mortality or growth inhibition) at 200 ppm [5] | percent effect (mortality or growth inhibition) at 200 ppm [6] | percent effect (mortality or growth inhibition) at 200 ppm [7]

CCS(=N)(=O)c1cc(C2(C#N)CC2)cnc1-n1cc2cnc(C(F)(F)F)cc2n1 (stereo not drawn) [Example P17, 1-[5-(ethylsulfonimidoyl)-6-[6-(trifluoromethyl)pyrazolo[4,3-c]pyridin-2-yl]-3-pyridyl] cyclopropanecarbonitrile]
≥ 80%: mortality at 24 ppm [1] | mortality at 200 ppm [3] | percent effect (mortality or growth inhibition) at 200 ppm [8]

CCS(=N)(=O)c1cc(C2CC2)cnc1-c1nc2cc(SC(F)(F)F)ncc2n1C (stereo not drawn) [Example P4, [5-cyclopropyl-2-[3-methyl-6-(trifluoromethylsulfanyl)imidazo[4,5-c]pyridin-2-yl]-3-pyridyl]-ethyl-imino-oxo-λ^6-sulfane]
≥ 80%: mortality at 24 ppm [1] | percent control (mortality, anti-feedant effect or growth inhibition) at 200 ppm [2] | mortality at 200 ppm [3] | mortality at 200 ppm [4] | percent effect (mortality or growth inhibition) at 200 ppm [5] | percent effect (mortality or growth inhibition) at 200 ppm [6] | percent effect (mortality or growth inhibition) at 200 ppm [7]

CCS(=N)(=O)c1cc(C2(C#N)CC2)ccc1-c1nc2cc(C(F)(F)F)cnc2n1C (stereo not drawn) [Example P15, 1-[3-(ethylsulfonimidoyl)-4-[3-methyl-6-(trifluoromethyl)imidazo[4,5-b]pyridin-2-yl]phenyl]cyclopropanecarbonitrile]
≥ 80%: mortality at 24 ppm [1] | percent control (mortality, anti-feedant effect or growth inhibition) at 200 ppm [2] | mortality at 200 ppm [3] | mortality at 200 ppm [4] | percent effect (mortality or growth inhibition) at 200 ppm [5] | percent effect (mortality or growth inhibition) at 200 ppm [6]

CCS(=N)(=O)c1cc(C2CC2)cnc1-c1nc2cc(S(=O)(=O)C(F)(F)F)ccc2o1 (stereo not drawn) [Example P19, [5-cyclopropyl-2-[5-(trifluoromethylsulfonyl)-l ,3-benzoxazol-2-yl]-3-pyridyl]-ethyl-imino-oxo-λ^6-sulfane]
≥ 80%: percent effect (mortality or growth inhibition) at 200 ppm [8]
